In ChEMBL document CHEMBL1159262, “Bioactive diterpenoids from Octocorallia, 2. Deoxyxeniolide B, a novel ichthyotoxic diterpenoid from the soft coral Xenia elongata” (J Nat Prod, 1995) one finds Activity and LC100 data, which are given here for 3 compounds.

For this series, the system named is Oryzias latipes. Description: Ichthyotoxicity against Oryzias latipes after 1 hr. In kind it is organism-based. The conditions noted are these: in vivo.

For the compound `C=C1CC[C@@H]2O[C@@]2(C)CC[C@@H]2/C(=C\C=C\C(C)(C)O)COC(=O)[C@@H]12`, the Activity result is reported as “Non-toxic”. On the same count and under the same terms, then `C=C1CC[C@@H]2O[C@@]2(C)CC[C@@H]2/C(=C\CC=C(C)C)COC(=O)[C@@H]12`, with “Non-toxic”. Regarding `C=C1CC/C=C(\C)CC[C@@H]2/C(=C\CC=C(C)C)COC(=O)[C@@H]12` [DEOXYXENIOLIDE B], the LC100 is 15 ppm.
